This is an account of results in patent publication US10689383B2, “Optionally fused heterocyclyl-substituted derivatives of pyrimidine useful for the treatment of inflammatory, metabolic, oncologic and autoimmune diseases” (NUEVOLUTION A/S, priority 2014, dated 2020).

The target of assay [1] is T1, yeast Gal4-DNA binding domain fused to the ligand binding domain of human RORγ (Homo sapiens, UniProt P51449).
T1 construct: host or cells: HEK293t
T1 sequence (P51449 269-508 limits assumed): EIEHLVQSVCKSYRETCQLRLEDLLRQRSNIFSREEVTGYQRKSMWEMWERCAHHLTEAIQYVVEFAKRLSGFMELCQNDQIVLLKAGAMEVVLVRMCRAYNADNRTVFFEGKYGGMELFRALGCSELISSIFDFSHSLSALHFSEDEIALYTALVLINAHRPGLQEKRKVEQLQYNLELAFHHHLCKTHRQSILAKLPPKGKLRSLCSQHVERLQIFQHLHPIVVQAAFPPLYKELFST
Put plainly: RORγ Reporter Assay (Gal4). To be noted: RORγ Reporter Assay (Gal4) at 1 μM; values given as lower bounds of ranges. The assay is classed as cell-based. On the procedure: The activity of the compounds was evaluated using a Fluorescence Polarization (FP) Assay and, in most cases, a Th17 Assay and/or RORγ Reporter assay (also referred to as Gal4 assay). The FP assay is an in vitro assay monitoring binding within the ligand binding pocket. The RORγ and the Th17 assays are both cell-based assays monitoring functional activity of the compound assayed.
Cell-based RORγ functional assays were performed using a commercially available assay product (INDIGO Biosciences, State College, Pa., USA; product # IB04001). The RORγ reporter cells are HEK293t cells transfected with one vector that provides high level constitutive expression of a hybrid protein comprised of the yeast Gal4-DNA binding domain fused to the ligand binding domain of human RORγ, and a second vector comprising the firefly luciferase cDNA functionally linked to the upstream activation sequence (UAS) of yeast Gal4. A suspension of RORγ Reporter Cells was prepared using the protocol and culture medium provided in the kit product, and 100 μl of the Reporter Cell suspension was then dispensed into wells of a white, collagen-treated, 96-well assay plate. Concentrated stocks of test compounds were prepared in DMSO, then further diluted using media provided in the kit to generate ‘2×-concentration’ treatment media. 100 μl of medium for each respective treatment concentration dispensed into triplicate assay wells, thereby combining with the reporter cells. All media formulations contained 10% charcoal stripped Fetal Bovine Serum, but are otherwise proprietary to INDIGO Biosciences. Final treatment concentrations for each test compound were 1,000 nM and 100 nM, each with 0.1% residual DMSO. Separate control treatments were media supplemented with vehicle only (0.1% DMSO) to determine the constitutive level of RORγ activity in the reporter cells, and the reference inverse-agonist ursolic acid (f.c. 6,000 nM to 8.2 nM in 3-fold decrements) to establish a positive control inverse-agonist dose response. Assay plates were placed in a 37° C., 5% CO2, 85% humidity incubator for 24 hour. Treatment media were then discarded, 100 μl of luciferase detection reagent was added to each well, and relative light units (RLUs) were quantified from each assay well using a plate reading luminometer. Values of average RLU+/−standard deviation were computed for all treatment sets, followed by the calculations of fold-reduction: [Average RLUVehicle/Average RLUTest Cmpd]. Percent-reduction of RORγ activity in response to respective test compound treatments was calculated: [100*(1−[Ave RLUTest Cmpd/Ave RLUVehicle)] where the theoretical minimum reduction (0% reduction) derives from Vehicle treatment only, no treatment compound.

In assay [2] the target is T2, human RORγt (Ligand Binding Domain) (Homo sapiens, UniProt P51449).
T2 construct: purchased Crelux (Planegg, Germany) batch no PC5032-1
T2 sequence (P51449 269-508 limits assumed): T1 sequence (P51449 269-508 limits assumed)
Description: Fluorescence Polarization (FP) Assay. The conditions noted are these: Fluorescence Polarization (FP) Assay; values given as upper bounds of activity ranges; read-out: FP activity range. In outline:
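In vitro FP binding assay monitoring ligand binding within the ligand binding pocket. Probe is a TAMRA-labelled RORγt ligand (MW 910 g/mole); DMSO served as negative control.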
A general note: In fluorescence polarisation assays a small probe gives low polarisation when free and higher when bound to something large.

Molecules are shown by their SMILES. Some results are limits rather than exact numbers.

On to `Cc1c(N[C@H](CC(C)(C)C)C(N)=O)ncnc1N1CCCC1c1ccc(C(F)(F)F)cc1` (stereo partly drawn) [Example 14, (2R)-4,4-dimethyl-2-[[5-methyl-6-[2-[4-(trifluoromethyl)phenyl]pyrrolidin-1-yl]pyrimidin-4-yl]amino]pentanamide], for which, in assay [1], the “Gal4 activity range @ 1 μM (% inhibition)” value is given as greater than 0 % inhibition. Moreover, the IC50 in assay [2] is less than 10 µM.

Regarding `COc1ccc(C[C@@H](Nc2ncnc(N3CCCC3c3ccc(C(F)(F)F)cc3)c2F)C(N)=O)cc1` (stereo partly drawn) [Example 17, (2R)-2-[[5-fluoro-6-[2-[4-(trifluoromethyl)phenyl]pyrrolidin-1-yl]pyrimidin-4-yl]amino]-3-(4-methoxyphenyl)propanamide], in assay [1], the “Gal4 activity range @ 1 μM (% inhibition)” value was greater than 80 % inhibition. In addition, the IC50 in assay [2] is less than 0.5 µM.

On to `CC(C)(C)C[C@@H](Nc1ncnc(N2CCOCC2c2ccc(C(F)(F)F)cc2)c1F)C(N)=O` (stereo partly drawn) [Example 20, (2R)-2-[[5-fluoro-6-[3-[4-(trifluoromethyl)phenyl]morpholin-4-yl]pyrimidin-4-yl]amino]-4,4-dimethyl-pentanamide], for which the “Gal4 activity range @ 1 μM (% inhibition)” value in assay [1] is on record as greater than 50 % inhibition. Besides, in assay [2], the IC50 was less than 2 µM.

On to `CNC(=O)[C@@H](CC(C)(C)C)N(C)c1ncnc(N2CCCC2c2ccc(C(F)(F)F)cc2)c1F` (stereo partly drawn) [Example 31, (2R)-2-[[5-fluoro-6-[2-[4-(trifluoromethyl)phenyl]pyrrolidin-1-yl]pyrimidin-4-yl]-methyl-amino]-N,4,4-trimethyl-pentanamide], for which, in assay [1], the “Gal4 activity range @ 1 μM (% inhibition)” value is given as greater than 0 % inhibition. Further, the IC50 in assay [2] is less than 10 µM.

For `CC(C)(C)C[C@@H](Nc1ccnc(N2CCCC2c2ccc(C(F)(F)F)cc2)c1F)C(N)=O` (stereo partly drawn) [Example 39, (2R)-2-[[3-fluoro-2-[2-[4-(trifluoromethyl)phenyl]pyrrolidin-1-yl]-4-pyridyl]amino]-4,4-dimethyl-pentanamide], in assay [1], the “Gal4 activity range @ 1 μM (% inhibition)” value is greater than 20 % inhibition. The IC50 in assay [2] is less than 10 µM.

Regarding `CC(C)(C)C[C@@H](Nc1ncnc(N2CCCC2c2ccc(C(F)(F)F)cn2)c1F)C(N)=O` (stereo partly drawn) [Example 42, (2R)-2-[[5-fluoro-6-[2-[5-(trifluoromethyl)-2-pyridyl]pyrrolidin-1-yl]pyrimidin-4-yl]amino]-4,4-dimethyl-pentanamide], the “Gal4 activity range @ 1 μM (% inhibition)” value in assay [1] was greater than 20 % inhibition. Also, the IC50 in assay [2] was less than 2 µM.

Take `CC(C)(C)C[C@@H](Nc1ncnc(N2CCCC2c2ccc(OC(C)(C)C)cc2)c1F)C(N)=O` (stereo partly drawn) [Example 43, (2R)-2-[[6-[2-(4-tert-butoxyphenyl)pyrrolidin-1-yl]-5-fluoro-pyrimidin-4-yl]amino]-4,4-dimethyl-pentanamide]: in assay [1], the “Gal4 activity range @ 1 μM (% inhibition)” value is reported as greater than 80 % inhibition. Further, the IC50 in assay [2] is less than 1 µM.

Take `CC(OC(C)(C)C)[C@@H](Nc1ncnc(N2CCCC2c2ccc(C(F)(F)F)cc2)c1F)C(N)=O` (stereo partly drawn) [Example 51, (2R)-3-tert-butoxy-2-[[5-fluoro-6-[2-[4-(trifluoromethyl)phenyl]pyrrolidin-1-yl]pyrimidin-4-yl]amino]butanamide]: the “Gal4 activity range @ 1 μM (% inhibition)” value in assay [1] was greater than 80 % inhibition. Further, the IC50 in assay [2] was less than 1 µM.

For `NC(=O)[C@@H](CC1CCOCC1)Nc1ncnc(N2CCCC2c2ccc(C(F)(F)F)cc2)c1F` (stereo partly drawn) [Example 52, (2R)-2-[[5-fluoro-6-[2-[4-(trifluoromethyl)phenyl]pyrrolidin-1-yl]pyrimidin-4-yl]amino]-3-tetrahydropyran-4-yl-propanamide], the “Gal4 activity range @ 1 μM (% inhibition)” value in assay [1] was greater than 80 % inhibition. In addition, the IC50 in assay [2] is less than 2 µM.

Regarding `COc1ccc(CNc2ncnc(N3CCCC3c3ccc(C(F)(F)F)cc3)c2F)cc1OC` (centres unmarked) [Example 53, N-[(3,4-dimethoxyphenyl)methyl]-5-fluoro-6-[2-[4-(trifluoromethyl)phenyl]pyrrolidin-1-yl]pyrimidin-4-amine], in assay [1], the “Gal4 activity range @ 1 μM (% inhibition)” value is greater than 20 % inhibition. Besides, the IC50 in assay [2] was less than 1 µM.

`COc1cccc(CNc2ncnc(N3CCCC3c3ccc(C(F)(F)F)cc3)c2F)c1OC` (centres unmarked) [Example 54, N-[(2,3-dimethoxyphenyl)methyl]-5-fluoro-6-[2-[4-(trifluoromethyl)phenyl]pyrrolidin-1-yl]pyrimidin-4-amine]: the “Gal4 activity range @ 1 μM (% inhibition)” value in assay [1] is listed as greater than 50 % inhibition. In addition, the IC50 in assay [2] is less than 1 µM.

`Fc1c(NCc2ccc(N3CCOCC3)cc2)ncnc1N1CCCC1c1ccc(C(F)(F)F)cc1` (centres unmarked) [Example 56, 5-fluoro-N-[(4-morpholinophenyl)methyl]-6-[2-[4-(trifluoromethyl)phenyl]pyrrolidin-1-yl]pyrimidin-4-amine]: the “Gal4 activity range @ 1 μM (% inhibition)” value in assay [1] is on record as greater than 20 % inhibition. Further, the IC50 in assay [2] was less than 2 µM.

Turning to `O=C1CN(c2ccc(CNc3ncnc(N4CCCC4c4ccc(C(F)(F)F)cc4)c3F)cc2)CCN1` (centres unmarked) [Example 60, 4-[4-[[[5-fluoro-6-[2-[4-(trifluoromethyl)phenyl]pyrrolidin-1-yl]pyrimidin-4-yl]amino]methyl]phenyl]piperazin-2-one], the “Gal4 activity range @ 1 μM (% inhibition)” value in assay [1] is on record as greater than 20 % inhibition. The IC50 in assay [2] is less than 2 µM.

Regarding `NC(=O)[C@@H](CC1CCNC1=O)Nc1ncnc(N2CCCC2c2ccc(C(F)(F)F)cc2)c1F` (stereo partly drawn) [Example 63, (2R)-2-[[5-fluoro-6-[2-[4-(trifluoromethyl)phenyl]pyrrolidin-1-yl]pyrimidin-4-yl]amino]-3-(2-oxopyrrolidin-3-yl)propanamide], the “Gal4 activity range @ 1 μM (% inhibition)” value in assay [1] was greater than 20 % inhibition. For the same compound, the IC50 in assay [2] is less than 2 µM.

Turning to `NC(=O)Cc1ccc(CNc2ncnc(N3CCCC3c3ccc4ccccc4c3)c2F)cc1` (centres unmarked) [Example 312, 2-[4-[[[5-fluoro-6-[2-(2-naphthyl)pyrrolidin-1-yl]pyrimidin-4-yl]amino]methyl]phenyl] acetamide], in assay [2], the IC50 was less than 0.5 µM.

With `Cc1nc(C2CCCN2c2ncnc(NCc3ccc(CC(N)=O)cc3)c2F)no1` (centres unmarked) [Example 314, 2-[4-[[[5-fluoro-6-[2-(5-methyl-1,2,4-oxadiazol-3-yl)pyrrolidin-1-yl]pyrimidin-4-yl]amino]methyl]phenyl]acetamide], in assay [2], the IC50 is less than 10 µM.

Consider `Cc1nnc(C2CCCN2c2ncnc(NCc3ccc(CC(N)=O)cc3)c2F)o1` (centres unmarked) [Example 315, 2-[4-[[[5-fluoro-6-[2-(5-methyl-1,3,4-oxadiazol-2-yl)pyrrolidin-1-yl]pyrimidin-4-yl]amino]methyl]phenyl]acetamide], for which the IC50 in assay [2] is less than 10 µM.

Turning to `Cc1nn(C)cc1C1CCCN1c1ncnc(NCc2ccc(CC(N)=O)cc2)c1F` (centres unmarked) [Example 317, 2-[4-[[[6-[2-(1,3-dimethylpyrazol-4-yl)pyrrolidin-1-yl]-5-fluoro-pyrimidin-4-yl]amino]methyl]phenyl]acetamide], the IC50 in assay [2] is less than 10 µM.

As for `CC(C)(C)C[C@@H](Nc1ncnc(N2CCC[C@@H]2c2ccc(C(F)(F)F)cc2)c1F)C(=O)O` [Example 325, (2R)-2-[[5-fluoro-6-[(2R)-2-[4-(trifluoromethyl)phenyl]pyrrolidin-1-yl]pyrimidin-4-yl]amino]-4,4-dimethyl-pentanoic acid], the IC50 in assay [2] is less than 1 µM.

Regarding `CS(=O)(=O)c1ccc(Cn2ccc3c(N4CCOC[C@@H]4c4ccc(OC(F)(F)F)cc4)ncnc32)cn1` [Example 329, (3S)-4-[7-[(6-methylsulfonyl-3-pyridyl)methyl]pyrrolo[2,3-d]pyrimidin-4-yl]-3-[4-(trifluoromethoxy)phenyl] morpholine], in assay [2], the IC50 is less than 2 µM.

For `CS(=O)(=O)c1ccc(Cn2ccc3c(N4CCOC[C@@H]4c4ccc(OC(F)(F)F)cc4)ncnc32)nc1` [Example 330, (3S)-4-[7-[(5-methylsulfonyl-2-pyridyl)methyl]pyrrolo[2,3-d]pyrimidin-4-yl]-3-[4-(trifluoromethoxy)phenyl] morpholine], the IC50 in assay [2] was less than 2 µM.
